Data: article PMC10373102 (Molecular microbiology, 2011)

Molecular target: T1, CtdQ; acylating aldehyde dehydrogenase (ADA) (Acidovorax sp. JS42, UniProt A1W2K2)
T1 sequence (A1W2K2 1-302): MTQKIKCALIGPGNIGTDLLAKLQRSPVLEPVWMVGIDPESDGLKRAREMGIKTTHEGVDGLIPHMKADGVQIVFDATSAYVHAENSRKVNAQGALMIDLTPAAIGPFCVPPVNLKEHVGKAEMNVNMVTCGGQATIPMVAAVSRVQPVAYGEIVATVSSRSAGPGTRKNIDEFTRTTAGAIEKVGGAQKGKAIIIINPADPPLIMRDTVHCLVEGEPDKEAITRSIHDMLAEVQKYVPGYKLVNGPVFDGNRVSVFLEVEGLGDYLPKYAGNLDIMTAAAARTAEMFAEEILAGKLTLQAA
Assay: enzyme assay in extract of E. coli expressing ctdQ
Assay type: biochemical
Conditions: details in SI

Structure (SMILES)	enzyme assay in extract of E. coli expressing ctdQ
CCC=O [propionaldehyde]	the enzyme was equally active with acetaldehyde and propionaldehyde
CC=O [acetaldehyde]	the enzyme was equally active with acetaldehyde and propionaldehyde
